Several values for one entry are separate records, joined by “and”; a condition that tells them apart may be missing. Identical values can stand only once. ± gives the expanded uncertainty stated by the source.
How the values were obtained:
[1] = molar enthalpy of vaporization or sublimation; conditions: 298.15 K; Crystal; Calvet microcalorimetry
[2] = Crystal, Calculated from knudsen effusion weight loss

O=C(c1cccc([N+](=O)[O-])c1)c1cccc([N+](=O)[O-])c1 [3,3'-dinitrobenzophenone]
molar enthalpy [1]: 35.2 ± 1.86 kcal/mol

O=C(c1ccccc1)c1ccc([N+](=O)[O-])cc1 [4-nitrobenzophenone]
vapor or sublimation pressure ([2]; 359.27 K): 0.00018 ± 9e-06 kPa and 0.000177 ± 9e-06 kPa and 0.000174 ± 9e-06 kPa | vapor or sublimation pressure ([2]; 361.19 K): 0.000215 ± 1.1e-05 kPa and 0.00021 ± 1.1e-05 kPa and 0.000214 ± 1.1e-05 kPa | vapor or sublimation pressure ([2]; 363.12 K): 0.000269 ± 1.3e-05 kPa and 0.000265 ± 1.3e-05 kPa and 0.000259 ± 1.3e-05 kPa | vapor or sublimation pressure ([2]; 365.29 K): 0.000344 ± 1.7e-05 kPa and 0.000342 ± 1.7e-05 kPa | vapor or sublimation pressure ([2]; 367.2 K): 0.000422 ± 2.1e-05 kPa and 0.00042 ± 2.1e-05 kPa and 0.000427 ± 2.1e-05 kPa | vapor or sublimation pressure ([2]; 369.12 K): 0.000512 ± 2.6e-05 kPa and 0.000509 ± 2.5e-05 kPa and 0.000523 ± 2.6e-05 kPa | vapor or sublimation pressure ([2]; 371.29 K): 0.000652 ± 3.3e-05 kPa and 0.000645 ± 3.2e-05 kPa and 0.000657 ± 3.3e-05 kPa | vapor or sublimation pressure ([2]; 373.18 K): 0.000767 ± 3.8e-05 kPa and 0.000769 ± 3.8e-05 kPa and 0.000791 ± 4e-05 kPa | vapor or sublimation pressure ([2]; 375.1 K): 0.000955 ± 4.8e-05 kPa and 0.000941 ± 4.7e-05 kPa and 0.00096 ± 4.8e-05 kPa | molar enthalpy [1]: 29.2 ± 1.29 kcal/mol

O=C(c1ccccc1)c1cccc([N+](=O)[O-])c1 [3-nitrobenzophenone]
vapor or sublimation pressure ([2]; 349.27 K): 0.00016 ± 8e-06 kPa and 0.000161 ± 8e-06 kPa and 0.000162 ± 8e-06 kPa | vapor or sublimation pressure ([2]; 351.21 K): 0.000194 ± 1e-05 kPa and 0.000198 ± 1e-05 kPa | vapor or sublimation pressure ([2]; 353.12 K): 0.000248 ± 1.2e-05 kPa and 0.000245 ± 1.2e-05 kPa and 0.000244 ± 1.2e-05 kPa | vapor or sublimation pressure ([2]; 355.13 K): 0.000315 ± 1.6e-05 kPa and 0.000308 ± 1.5e-05 kPa | vapor or sublimation pressure ([2]; 357.21 K): 0.000399 ± 2e-05 kPa and 0.000396 ± 2e-05 kPa and 0.000395 ± 2e-05 kPa | vapor or sublimation pressure ([2]; 359.26 K): 0.000506 ± 2.5e-05 kPa and 0.000508 ± 2.5e-05 kPa | vapor or sublimation pressure ([2]; 361.26 K): 0.000613 ± 3.1e-05 kPa and 0.00061 ± 3.1e-05 kPa and 0.000614 ± 3.1e-05 kPa | vapor or sublimation pressure ([2]; 363.2 K): 0.000758 ± 3.8e-05 kPa and 0.000749 ± 3.8e-05 kPa and 0.000771 ± 3.9e-05 kPa | vapor or sublimation pressure ([2]; 365.12 K): 0.000936 ± 4.7e-05 kPa and 0.000935 ± 4.7e-05 kPa and 0.000946 ± 4.7e-05 kPa | molar enthalpy [1]: 29.5 ± 1.15 kcal/mol

Reference: the NIST ThermoML archive (doi:10.1016/j.jct.2010.11.005)
